Biological target: SOS1 (Homo sapiens (Human), UniProt Q07889)
Test: Ras-SOS interaction assay (HTRF), K-Ras G13D utilized
Type: binding
Settings: K-Ras G13D, read-out: SOS1 IC50
Description: For example, the equilibrium interaction of human SOS1 (hSOS1) with human wildtype Kras or K-Ras mutant (e.g., hK-Ras G12C mutant, or hK-Ras G12C) can be assessed as a proxy or an indication for a subject compound's ability to inhibit SOS. Detection of such interaction is achieved by measuring homogenous time-resolved fluorescence resonance energy transfer (HTRF) from (i) a fluorescence resonance energy transfer (FRET) donor (e.g., antiGST-Europium) that is bound to GST-tagged K-Ras G12C to (ii) a FRET acceptor (e.g., anti-6His-XL665) bound to a His-tagged hSOS1.
A Ras working solution is prepared in assay buffer containing typically 10 nM of the protein construct (e.g., GST-tagged hK-Ras G12C) and 2 nM of the FRET donor (e.g., antiGST-Eu(K) from Cisbio, France). A SOS1 working solution is prepared in assay buffer containing typically 10 nM of the protein construct (e.g., His-hSOS1) and 10 nM of the FRET acceptor (e.g., anti-6His-XL665 from Cisbio, France). An inhibitor control solution is prepared in assay buffer containing 10 nM of the FRET acceptor without the SOS1 protein.
A fixed reaction mixture with or without test compound is transferred into a 384-well plate. Ras working solution is added to all wells of the test plate. SOS1 working solution is added to all wells except for those that are subsequently filled with the inhibitor control solution. […] The ratiometric data (i.e., emission 2 divided by emission 1) is used to calculate IC50 values against SOS1 using GraphPad Prism (GraphPad software).

SOS1, sequence (Q07889 564-1049): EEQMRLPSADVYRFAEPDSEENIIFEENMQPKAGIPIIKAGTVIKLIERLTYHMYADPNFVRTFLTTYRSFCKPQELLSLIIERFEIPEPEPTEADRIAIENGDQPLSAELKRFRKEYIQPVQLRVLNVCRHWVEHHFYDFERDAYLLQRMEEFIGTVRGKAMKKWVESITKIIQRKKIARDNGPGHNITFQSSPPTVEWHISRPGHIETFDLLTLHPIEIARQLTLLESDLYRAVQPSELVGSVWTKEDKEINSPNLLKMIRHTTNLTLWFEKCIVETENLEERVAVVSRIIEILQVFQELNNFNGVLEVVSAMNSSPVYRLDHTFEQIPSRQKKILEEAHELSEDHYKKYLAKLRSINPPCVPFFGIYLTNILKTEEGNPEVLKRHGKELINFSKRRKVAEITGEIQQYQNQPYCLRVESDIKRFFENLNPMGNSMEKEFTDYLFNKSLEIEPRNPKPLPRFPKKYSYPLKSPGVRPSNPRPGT

Structure (SMILES) | IC50
C[C@H]1Nc2ncnc3c2cc(C2(C#N)CC2)c(=O)n3CC(=O)N(C)CCCCN2CCC(CC2(C)C)C(F)(F)c2cccc1c2 (stereo partly drawn) [Compound 93, 1-((4R)-2,2-difluoro-1^2,1^2,4,9-tetramethyl-6^7,8-dioxo-6^7,6^8-dihydro-5,9-diaza-6(4,8)-pyrido[2,3-d]pyrimidina-1(4,1)-piperidina-3(1,3)-benzenacyclotridecaphane-6^6-yl)cyclopropane-1-carbonitrile] | < 100 nM
Cc1nc2c3cc(C4CCS(=O)(=O)CC4)c(=O)n(c3n1)CCCCCCCN1CCC(CC1)C(F)(F)c1cccc(c1)[C@@H](C)N2 [Compound 7, (4R)-6^6-(1,1-dioxidotetrahydro-2H-thiopyran-4-yl)-2,2-difluoro-6^2,4-dimethyl-6^7,6^8-dihydro-5-aza-6(4,8)-pyrido[2,3-d]pyrimidina-1(4,1)-piperidina-3(1,3)-benzenacyclotridecaphan-6^7-one] | 100 to 5000 nM
C[C@H]1Nc2nc(=O)n(c3c2cc(C2(C#N)CC2)c(=O)n3C)CCCC/C=C\COCC(F)(F)c2cccc1c2F [Compound 82, 1-((1^3E,3R,9Z)-4^2,5,5-trifluoro-1^8,3-dimethyl-1^2,1^7-dioxo-1^1,1^2,1^7,1^8-tetrahydro-7-oxa-2-aza-1(4,1)-pyrido[2,3-d]pyrimidina-4(1,3)-benzenacyclotetradecaphan-9-en-1^6-yl)cyclopropane-1-carbonitrile] | 100 to 5000 nM
COc1cc2nc(C)nc3c2cc1OCCOCCOCCOCCOCCNC(=O)CCCCNCc1ccccc1C1=CC=C(S1)C(C)N3 (stereo not shown) [Compound 45, 5^7-methoxy-5^2,3-dimethyl-6,9,12,15,18-pentaoxa-4,21,27-triaza-5(4,6)-quinazolina-2(2,5)-thiophena-1(1,2)-benzenacyclooctacosaphan-22-one] | < 100 nM
C[C@H]1Nc2nc(=O)n(c3c2cc(C2(C#N)CC2)c(=O)n3C)C/C=C\COCC(F)(F)c2cccc1c2F [Compound 66, 1-((1^3E,3R,9Z)-4^2,5,5-trifluoro-1^8,3-dimethyl-1^2,1^7-dioxo-1^1,1^2,1^7,1^8-tetrahydro-7-oxa-2-aza-1(4,1)-pyrido[2,3-d]pyrimidina-4(1,3)-benzenacycloundecaphan-9-en-1^6-yl)cyclopropane-1-carbonitrile] | 100 to 5000 nM
Cc1nc2c3cc(C4(C#N)CC4)c(=O)n(c3n1)CCCC/C=C\CC(C)(O)C(F)(F)c1cccc(c1)[C@@H](C)N2 (stereo partly drawn) [Compound 13, 1-((3R,Z)-5,5-difluoro-6-hydroxy-1^2,3,6-trimethyl-1^7-oxo-1^7,1^8-dihydro-2-aza-1(4,8)-pyrido[2,3-d]pyrimidina-4(1,3)-benzenacyclotridecaphan-8-en-1^6-yl)cyclopropane-1-carbonitrile] | 100 to 5000 nM
COc1cc2nc(C)nc3c2cc1OCCOCCOCCOCCOCCNCc1ccccc1-c1cccc(c1)C(C)N3 (stereo not shown) [Compound 99, 5^7-methoxy-5^2,3-dimethyl-6,9,12,15,18-pentaoxa-4,21-diaza-5(4,6)-quinazolina-1(1,2),2(1,3)-dibenzenacyclodocosaphane] | 100 to 5000 nM
COc1cc2nc(C)nc3c2cc1OCCOCCOCCOCCOCCNC(=O)CCCNCc1ccccc1C1=CC=C(S1)C(C)N3 (stereo not shown) [Compound 51, 5^7-methoxy-5^2,3-dimethyl-6,9,12,15,18-pentaoxa-4,21,26-triaza-5(4,6)-quinazolina-2(2,5)-thiophena-1(1,2)-benzenacycloheptacosaphan-22-one] | < 100 nM
C[C@H]1Nc2nc(=O)n(c3c2cc(C2(C#N)CC2)c(=O)n3C)CCC/C=C\COCC(F)(F)c2cccc1c2F [Compound 2, 1-((1^3E,3R,9Z)-4^2,5,5-trifluoro-1^8,3-dimethyl-1^2,1^7-dioxo-1^1,1^2,1^7,1^8-tetrahydro-7-oxa-2-aza-1(4,1)-pyrido[2,3-d]pyrimidina-4(1,3)-benzenacyclotridecaphan-9-en-1^6-yl)cyclopropane-1-carbonitrile] | 100 to 5000 nM
C[C@H]1Nc2ncnc3c2cc(N2CCS(=O)(=O)CC2)c(=O)n3CCCOCCCCN2CCC(CC2)C(F)(F)c2cccc1c2F [Compound 69, (4R)-6^6-(1,1-dioxidothiomorpholino)-3^2,2,2-trifluoro-4-methyl-6^7,6^8-dihydro-10-oxa-5-aza-6(4,8)-pyrido[2,3-d]pyrimidina-1(4,1)-piperidina-3(1,3)-benzenacyclotetradecaphan-6^7-one] | < 100 nM
C[C@H]1Nc2nc(=O)n(c3c2cc(C2(C#N)CC2)c(=O)n3C)CC/C=C\COCC(F)(F)c2cccc1c2F [Compound 102, 1-((1^3E,3R,9Z)-4^2,5,5-trifluoro-1^8,3-dimethyl-1^2,1^7-dioxo-1^1,1^2,1^7,1^8-tetrahydro-7-oxa-2-aza-1(4,1)-pyrido[2,3-d]pyrimidina-4(1,3)-benzenacyclododecaphan-9-en-1^6-yl)cyclopropane-1-carbonitrile] | 100 to 5000 nM
C[C@H]1Nc2nc(=O)n(c3c2cc(C2(C#N)CC2)c(=O)n3C)CCCCOCC(F)(F)c2cccc1c2F [Compound 37, 1-((3R,E)-4^2,5,5-trifluoro-1^8,3-dimethyl-1^2,1^7-dioxo-1^1,1^2,1^7,1^8-tetrahydro-7-oxa-2-aza-1(4,1)-pyrido[2,3-d]pyrimidina-4(1,3)-benzenacycloundecaphane-1^6-yl)cyclopropane-1-carbonitrile] | 100 to 5000 nM
COc1cc2nc(C)nc3c2cc1OCCOCCOCCOCCNC(=O)CCOCCNCc1ccccc1-c1cccc(c1)[C@@H](C)N3 [Compound 14, (R)-5^7-methoxy-5^2,3-dimethyl-6,9,12,15,22-pentaoxa-4,18,25-triaza-5(4,6)-quinazolina-1(1,2),2(1,3)-dibenzenacyclohexacosaphan-19-one] | 100 to 5000 nM

More lines, now with the values ahead:

IC50 | Structure (SMILES)
< 100 nM | CC(C)N1CCN(c2cc3c4ncnc(c4c2)N[C@H](C)c2cccc(c2)C(F)(F)C2CCN(CCCCCCO3)CC2)CC1 [Compound 195, (R)-2,2-difluoro-6^6-(4-isopropylpiperazin-1-yl)-4-methyl-7-oxa-5-aza-6(4,8)-quinazolina-1(4,1)-piperidina-3(1,3)-benzenacyclotridecaphane]
< 100 nM | Cc1nnc2c3cc(N4CCOCC4)cc(c13)OCCCCCCN1CCC(CC1)C(F)(F)c1cccc(c1)[C@@H](C)N2 [Compound 196, (R)-2,2-difluoro-6^4,4-dimethyl-6^7-morpholino-7-oxa-5-aza-6(1,5)-phthalazina-1(4,1)-piperidina-3(1,3)-benzenacyclotridecaphane]
100 to 5000 nM | COc1cc2nc(C)nc3c2cc1OCCOCCOCCOCCOCCNC(=O)CCNCc1ccccc1C1=CC=C(S1)C(C)N3 (stereo not shown) [Compound 136, 5^7-methoxy-5^2,3-dimethyl-6,9,12,15,18-pentaoxa-4,21,25-triaza-5(4,6)-quinazolina-2(2,5)-thiophena-1(1,2)-benzenacyclohexacosaphan-22-one]
< 100 nM | C[C@H]1Nc2ncnc3c(cc(N4CCS(=O)(=O)CC4)cc23)OCCCCCCN2CCC(CC2)C(F)(F)c2cccc1c2 [Compound 193, (R)-4-(2,2-difluoro-4-methyl-7-oxa-5-aza-6(4,8)-quinazolina-1(4,1)-piperidina-3(1,3)-benzenacyclotridecaphane-6^6-yl)thiomorpholine 1,1-dioxide]
100 to 5000 nM | Cc1nc2c3cc(C4(C#N)CC4)c(=O)n(c3n1)CCCCCCCCCOCC(F)(F)c1cccc(c1F)[C@@H](C)N2 [Compound 133, 1-((3R)-4^2,5,5-trifluoro-1^2,3-dimethyl-1^7-oxo-1^7,1^8-dihydro-7-oxa-2-aza-1(4,8)-pyrido[2,3-d]pyrimidina-4(1,3)-benzenacyclohexadecaphane-1^6-yl)cyclopropane-1-carbonitrile]
< 100 nM | C[C@H]1Nc2ncnc3cc(c(N4CCS(=O)(=O)CC4)cc23)OCCCCOCCCN2CCC(CC2)C(F)(F)c2cccc1c2 [Compound 192, (R)-4-(2,2-difluoro-4-methyl-7,12-dioxa-5-aza-6(4,7)-quinazolina-1(4,1)-piperidina-3(1,3)-benzenacyclopentadecaphane-6^6-yl)thiomorpholine 1,1-dioxide]
100 to 5000 nM | Cc1nc2c3cc(C4(C#N)CC4)c(=O)n(c3n1)CCCCCCCC(C)(O)C(F)(F)c1cccc(c1)[C@@H](C)N2 (stereo partly drawn) [Compound 148, 1-((3R)-5,5-difluoro-6-hydroxy-1^2,3,6-trimethyl-1^7-oxo-1^7,1^8-dihydro-2-aza-1(4,8)-pyrido[2,3-d]pyrimidina-4(1,3)-benzenacyclotridecaphane-1^6-yl)cyclopropane-1-carbonitrile]
< 100 nM | C[C@H]1Nc2ncnc3c2cc(C2CCS(=O)(=O)CC2)c(=O)n3CCCOCCCN2CCC(CC2)CC(F)(F)c2cccc1c2 [Compound 194, (3R)-1^6-(1,1-dioxidotetrahydro-2H-thiopyran-4-yl)-5,5-difluoro-3-methyl-1^7,1^8-dihydro-11-oxa-2-aza-1(4,8)-pyrido[2,3-d]pyrimidina-7(4,1)-piperidina-4(1,3)-benzenacyclotetradecaphan-1^7-one]
100 to 5000 nM | Cc1nc2c3cc(C4(C#N)CC4)c(=O)n(c3n1)CCCCCCCCCC(C)(O)C(F)(F)c1cccc(c1)[C@@H](C)N2 (stereo partly drawn) [Compound 115, 1-((3R)-5,5-difluoro-6-hydroxy-1^2,3,6-trimethyl-1^7-oxo-1^7,1^8-dihydro-2-aza-1(4,8)-pyrido[2,3-d]pyrimidina-4(1,3)-benzenacyclopentadecaphane-1^6-yl)cyclopropane-1-carbonitrile]

Reference: patent US20230339952A1, “MACROCYCLIC HETEROCYCLES AND USES THEREOF” (Kumquat Biosciences Inc., priority 2022, published 2023)
